In PubChem BioAssay (NCI):
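Tested at 5 concentrations; 48 h exposure; 96-well plates; endpoints linearly interpolated, else capped at highest concentration. Abbreviation: GI50, concentration required for 50% inhibition of growth. At the TGI there is no net growth.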

What was measured:
Test in all cases: NCI anticancer screen, dose series, 48 h
[1] = system: CAKI-1 renal
[2] = system: HCT-15 colon
[3] = system: LOX IMVI melanoma
[4] = system: NCI-H23 lung
[5] = system: OVCAR-5 ovarian
[6] = system: SNB-19 CNS
[7] = system: U251 CNS
[8] = system: UACC-257 melanoma
[9] = system: KM12 colon
[10] = system: SR leukemia

Structure (SMILES) | TGI [1] [µM] | TGI [2] [µM] | TGI [3] [µM] | TGI [4] [µM] | TGI [5] [µM] | TGI [6] [µM] | TGI [7] [µM] | TGI [8] [µM] | GI50 [1] [µM] | GI50 [2] [µM] | GI50 [9] [µM] | TGI [9] [µM] | GI50 [3] [µM] | GI50 [4] [µM] | GI50 [5] [µM] | GI50 [6] [µM] | GI50 [7] [µM] | GI50 [8] [µM] | TGI [10] [µM] | GI50 [10] [µM]
COc1ccc2oc3c(OC)c(OC)c(OC)cc3c(=O)c2c1 | > 100 | > 100 | > 100 | > 100 | > 100 | > 100 | > 100 | > 100 | – | – | – | – | – | – | – | – | – | – | – | –
[N-]=[N+]=NCCCn1c2c(c3ccc([N+](=O)[O-])cc3c1=O)C(=O)c1cc(Br)ccc1-2 | > 100 | > 100 | > 100 | > 100 | > 100 | > 100 | > 100 | > 100 | 0.887 | > 100 | > 100 | > 100 | > 100 | > 100 | > 100 | > 100 | 45.8 | > 100 | – | –
CC(C)OC(=S)Nc1ccc(Cl)c(/C=N/OC(C)(C)C)c1 | 32.8 | 32.4 | 34.3 | 39.4 | 30.8 | 44.2 | 31.7 | 37.4 | – | – | – | 17.6 | – | – | – | – | – | – | 39.3 | –
CCOC(=O)/C(=C/c1cccc(Cl)c1)N(CC)CC | > 100 | > 100 | > 100 | > 100 | > 100 | – | > 100 | > 100 | – | – | – | > 100 | – | – | – | – | – | – | > 100 | –
COc1ccc(-c2ccc(/C=N/n3c(COc4ccccc4Cl)nn(CN4CCOCC4)c3=S)o2)c([N+](=O)[O-])c1 | 56.3 | > 100 | – | 62.7 | > 100 | > 100 | > 100 | – | 21.3 | 28.2 | 17.1 | 34.6 | – | 22.9 | 55.3 | 36.2 | 26.1 | – | – | –
CS(=O)(=O)OCCCNCCCOS(C)(=O)=O | 4280 | 4680 | 3920 | 5630 | 6290 | 6450 | 5460 | 5310 | – | – | – | 5510 | – | – | – | – | – | – | 2970 | –
C1CCCCc2nc3c(nc2CCC1)c1nc2c(nc1c1nc4c(nc31)CCCCCCCC4)CCCCCCCC2 | – | > 100 | > 100 | > 100 | > 100 | > 100 | > 100 | > 100 | – | – | – | > 100 | – | – | – | – | – | – | > 100 | –
CCCc1cc(=O)n2c(C(=O)Nc3ccc(F)cc3)c(C(=O)Nc3ccc(F)cc3)sc2n1 | > 160 | > 160 | > 160 | > 160 | > 160 | > 160 | 47.9 | 62.8 | 75.3 | 89.7 | 111 | > 160 | 45.5 | > 160 | > 160 | 117 | 16.3 | 20.8 | 88.1 | 31.3
COc1cc(C2C3=C(COC3=O)N(CCO)c3cc4c(cc32)OCCO4)cc(OC)c1OC (centres undefined) | > 50 | > 50 | > 50 | – | > 50 | > 50 | > 50 | > 50 | 2.11 | 1.37 | 0.187 | 0.838 | 0.286 | 0.203 | 2.09 | 0.717 | 0.226 | 0.384 | – | 0.166
Cc1ccc(-c2nc(/C=N/Nc3cc(C)nc4ccc(Cl)cc34)c(C)o2)cc1 | 3.19 | 2.08 | – | 4.48 | 3.39 | 3.49 | 3.39 | 3.31 | 1.74 | 0.549 | 1.88 | 3.88 | – | 2.17 | 1.72 | 1.84 | 1.83 | 1.71 | 1.39 | 0.339
CC1=C(SC#N)S(=O)(=O)N(c2ccccc2)C(C)=C1SC#N | > 100 | > 100 | > 100 | > 100 | > 100 | 76.5 | 35.4 | > 100 | – | – | – | > 100 | – | – | – | – | – | – | 65.5 | –
COc1cc(/C=C/c2ccc(O)c(OC)c2)cc(OC)c1 | > 100 | 45.8 | – | > 100 | > 100 | > 100 | > 100 | 80.6 | – | – | – | 96.5 | – | – | – | – | – | – | > 100 | –
N#CC1=C(N)Oc2c(ccc3ccccc23)C1c1cc(=O)oc2ccc(Cl)cc12 (centres undefined) | – | 15.8 | 40.5 | > 100 | > 100 | > 100 | 20.2 | 91.7 | – | 0.471 | 0.453 | 31.4 | 0.854 | 4.96 | 4.1 | 0.651 | 0.535 | 14.4 | > 100 | 0.449
COC1CC(O)C(OC(=O)c2ccccc2)C(C)O1 (centres undefined) | > 100 | > 100 | > 100 | > 100 | > 100 | > 100 | > 100 | – | – | – | – | > 100 | – | – | – | – | – | – | > 100 | –
ClCc1ccccc1Cn1cnc2ncnc(Cl)c21 | 4.21 | 2.91 | 3.07 | 17.6 | 7.3 | > 100 | 4.4 | 22.1 | 2.36 | 1.36 | 3.6 | 11.3 | 1.34 | 4.97 | 2.84 | 7.3 | 1.92 | 5.88 | – | –
CCCCCC(=O)Nc1nc2nc[nH]c2c(=O)[nH]1 | > 100 | > 100 | – | > 100 | > 100 | > 100 | > 100 | > 100 | – | – | – | > 100 | – | – | – | – | – | – | > 100 | –
Cc1ccc2nc(NC(=O)C(=O)C(C#N)c3ccc(Cl)cc3)sc2c1 (centres undefined) | > 50 | > 50 | > 50 | > 50 | > 50 | > 50 | > 50 | > 50 | – | – | – | > 50 | – | – | – | – | – | – | – | –
CCCCCCCC1(c2ccc(N)cc2)CCC(=O)NC1=O (centres undefined) | > 100 | > 100 | > 100 | > 100 | > 100 | > 100 | – | > 100 | – | – | – | > 100 | – | – | – | – | – | – | – | –
